Tests used:
Format in all cases: biochemical
Settings in all cases: 10-dose, 3-fold from 10 μM
FXIa = molecular target: T1, FXIa (Homo sapiens, UniProt P03951); assay: Non-TMPRSS2 protease panel: FXIa
T1 construct: FVIIa, Fxa, FXIa, Furin
Method: (§1) Biochemical activity of compound 1 (racemic mixture, batch 1), compound 3 (racemic), compound 11, and compound 2 (enantiomer 1, batch 1) in proteases indicated in Table 21, Table 22, Table 23, and Table 24, respectively, were measured by testing the compounds in a 10-dose IC50 with a 3-fold series dilution starting at 10 μM against the proteases. The protease activities were monitored as a time-course measurement of the increase in fluorescence signal from fluorescently-labeled peptide substrate, and initial linear portion of slope (signal/min) was analyzed. The curve fits were performed when the activities at the highest concentration of compounds were less than 65%.

ACE2 = ACE2 (Homo sapiens, UniProt Q9BYF1); assay: Non-TMPRSS2 protease panel: ACE2
Method: as §1

Matriptase 2 = molecular target: T2, Matriptase 2 (Homo sapiens, UniProt Q8IU80); assay: Non-TMPRSS2 protease panel: Matriptase 2
T2 sequence (Q8IU80 1-811): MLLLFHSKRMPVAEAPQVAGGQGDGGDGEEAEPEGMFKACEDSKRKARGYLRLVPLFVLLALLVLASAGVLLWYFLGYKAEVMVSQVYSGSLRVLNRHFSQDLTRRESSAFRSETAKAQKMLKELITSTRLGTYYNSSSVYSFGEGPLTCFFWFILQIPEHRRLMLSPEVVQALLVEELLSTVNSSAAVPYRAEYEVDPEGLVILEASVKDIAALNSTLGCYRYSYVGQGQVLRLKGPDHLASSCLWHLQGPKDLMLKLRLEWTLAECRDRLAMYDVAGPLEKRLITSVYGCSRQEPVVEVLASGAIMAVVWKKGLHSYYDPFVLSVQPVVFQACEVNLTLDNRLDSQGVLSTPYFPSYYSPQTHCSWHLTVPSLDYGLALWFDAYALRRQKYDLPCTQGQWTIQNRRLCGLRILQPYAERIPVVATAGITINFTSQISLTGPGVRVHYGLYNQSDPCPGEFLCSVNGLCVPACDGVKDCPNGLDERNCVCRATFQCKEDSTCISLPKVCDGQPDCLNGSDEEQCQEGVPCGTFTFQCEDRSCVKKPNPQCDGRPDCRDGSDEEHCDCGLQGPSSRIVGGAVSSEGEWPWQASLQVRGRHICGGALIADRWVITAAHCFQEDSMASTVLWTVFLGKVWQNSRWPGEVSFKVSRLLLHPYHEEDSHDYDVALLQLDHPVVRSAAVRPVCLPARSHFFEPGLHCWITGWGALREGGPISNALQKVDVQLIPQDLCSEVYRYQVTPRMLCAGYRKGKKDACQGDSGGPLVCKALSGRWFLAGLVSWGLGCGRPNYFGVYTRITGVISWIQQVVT
Method: as §1

MMP 2 = molecular target: T3, MMP 2 (Homo sapiens, UniProt P08253); assay: Non-TMPRSS2 protease panel: MMP 2
T3 sequence (P08253 110-660): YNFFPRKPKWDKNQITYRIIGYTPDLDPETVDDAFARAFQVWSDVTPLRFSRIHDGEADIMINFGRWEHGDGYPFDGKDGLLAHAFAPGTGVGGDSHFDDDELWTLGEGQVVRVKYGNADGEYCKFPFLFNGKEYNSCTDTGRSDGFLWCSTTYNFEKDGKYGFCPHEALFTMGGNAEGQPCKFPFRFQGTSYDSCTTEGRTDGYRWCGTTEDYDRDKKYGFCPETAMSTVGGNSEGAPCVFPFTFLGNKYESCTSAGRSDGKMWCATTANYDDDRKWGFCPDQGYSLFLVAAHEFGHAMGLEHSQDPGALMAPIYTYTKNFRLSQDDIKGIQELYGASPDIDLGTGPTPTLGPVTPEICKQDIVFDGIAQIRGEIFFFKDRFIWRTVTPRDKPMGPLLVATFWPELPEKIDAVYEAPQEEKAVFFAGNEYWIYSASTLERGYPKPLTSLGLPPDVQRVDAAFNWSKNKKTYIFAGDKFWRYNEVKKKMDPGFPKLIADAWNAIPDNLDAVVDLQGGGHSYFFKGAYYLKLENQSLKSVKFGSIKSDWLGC
Method: as §1

MMP 13 = MMP 13 (Homo sapiens, UniProt P45452); assay: Non-TMPRSS2 protease panel: MMP 13
Method: as §1

Kallikrein 12 = molecular target: T4, Kallikrein 12 (Homo sapiens, UniProt Q9UKR0); assay: Non-TMPRSS2 protease panel: Kallikrein 12
T4 sequence (Q9UKR0 18-248): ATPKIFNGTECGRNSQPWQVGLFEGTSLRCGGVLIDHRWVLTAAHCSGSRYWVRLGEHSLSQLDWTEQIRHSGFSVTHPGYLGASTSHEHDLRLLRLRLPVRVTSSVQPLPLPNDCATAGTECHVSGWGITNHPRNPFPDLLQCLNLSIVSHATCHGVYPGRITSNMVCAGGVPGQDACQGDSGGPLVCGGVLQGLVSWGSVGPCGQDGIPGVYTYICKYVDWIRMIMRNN
Method: as §1

FXa = molecular target: T5, FXa (Homo sapiens, UniProt P00742); assay: Non-TMPRSS2 protease panel: FXa
T5 construct: consisting of FXa, Kallikrein 1, MMP 1
Method: as §1

Thrombin a = Thrombin a (Homo sapiens, UniProt P00734); assay: Non-TMPRSS2 protease panel: Thrombin a
Method: as §1

Kallikrein 7 = Kallikrein 7 (Homo sapiens, UniProt P49862); assay: Non-TMPRSS2 protease panel: Kallikrein 7
Method: as §1

Plasmin = Plasmin (Homo sapiens, UniProt P00747); assay: Non-TMPRSS2 protease panel: Plasmin
Method: as §1

Kallikrein 14 = molecular target: T6, Kallikrein 14 (Homo sapiens, UniProt Q9P0G3); assay: Non-TMPRSS2 protease panel: Kallikrein 14
T6 sequence (Q9P0G3 25-251): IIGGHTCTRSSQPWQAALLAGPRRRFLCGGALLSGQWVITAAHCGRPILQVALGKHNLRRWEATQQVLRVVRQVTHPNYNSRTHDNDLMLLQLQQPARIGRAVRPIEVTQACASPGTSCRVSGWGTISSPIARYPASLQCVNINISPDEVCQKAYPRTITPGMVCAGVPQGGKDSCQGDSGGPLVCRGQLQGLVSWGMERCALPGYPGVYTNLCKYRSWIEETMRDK
Method: as §1

Measured: IC50

Chain of ACE2 (Q9BYF1 18-805): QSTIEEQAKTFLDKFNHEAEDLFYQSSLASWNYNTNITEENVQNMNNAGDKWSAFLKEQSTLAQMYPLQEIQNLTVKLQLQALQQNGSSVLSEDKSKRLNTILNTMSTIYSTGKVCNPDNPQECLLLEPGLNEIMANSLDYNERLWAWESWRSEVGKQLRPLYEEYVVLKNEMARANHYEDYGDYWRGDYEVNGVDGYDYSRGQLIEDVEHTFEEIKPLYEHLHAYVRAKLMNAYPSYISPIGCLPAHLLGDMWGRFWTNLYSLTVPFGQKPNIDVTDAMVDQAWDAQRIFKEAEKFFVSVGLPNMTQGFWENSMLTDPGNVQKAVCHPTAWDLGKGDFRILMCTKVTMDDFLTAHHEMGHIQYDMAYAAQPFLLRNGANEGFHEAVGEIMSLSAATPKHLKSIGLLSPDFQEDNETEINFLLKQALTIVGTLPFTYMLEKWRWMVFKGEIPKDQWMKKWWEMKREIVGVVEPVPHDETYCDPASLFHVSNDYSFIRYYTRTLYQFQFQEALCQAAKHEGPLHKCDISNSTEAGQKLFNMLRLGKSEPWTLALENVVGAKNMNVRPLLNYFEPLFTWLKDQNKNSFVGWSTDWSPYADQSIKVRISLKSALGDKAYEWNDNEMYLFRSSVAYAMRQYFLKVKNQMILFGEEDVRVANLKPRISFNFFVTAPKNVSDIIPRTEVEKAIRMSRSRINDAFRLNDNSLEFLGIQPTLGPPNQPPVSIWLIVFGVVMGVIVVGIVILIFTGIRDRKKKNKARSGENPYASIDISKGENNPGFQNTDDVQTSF
Chain of Kallikrein 7 (P49862 30-253): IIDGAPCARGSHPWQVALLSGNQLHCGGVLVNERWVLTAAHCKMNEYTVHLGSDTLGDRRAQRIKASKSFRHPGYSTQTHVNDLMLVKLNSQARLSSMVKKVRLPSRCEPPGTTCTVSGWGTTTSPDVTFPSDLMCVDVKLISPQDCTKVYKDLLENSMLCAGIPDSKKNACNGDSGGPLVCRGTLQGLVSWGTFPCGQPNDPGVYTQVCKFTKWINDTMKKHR
T5 sequence (P00742 235-488 limits assumed): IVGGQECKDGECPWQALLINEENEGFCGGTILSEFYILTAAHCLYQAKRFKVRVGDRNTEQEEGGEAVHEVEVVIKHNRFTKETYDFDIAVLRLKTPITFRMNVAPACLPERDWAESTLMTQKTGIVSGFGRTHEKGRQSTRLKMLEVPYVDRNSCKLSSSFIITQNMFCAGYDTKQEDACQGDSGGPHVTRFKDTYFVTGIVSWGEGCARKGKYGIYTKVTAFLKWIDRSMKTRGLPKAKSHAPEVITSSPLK
T5 sequence (P00742 41-179 partner limits assumed): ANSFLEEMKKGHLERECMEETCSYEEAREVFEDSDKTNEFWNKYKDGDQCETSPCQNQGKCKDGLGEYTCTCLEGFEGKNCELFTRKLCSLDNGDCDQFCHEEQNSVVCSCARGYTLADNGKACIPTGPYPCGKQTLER
T1 sequence (P03951 388-625 limits assumed): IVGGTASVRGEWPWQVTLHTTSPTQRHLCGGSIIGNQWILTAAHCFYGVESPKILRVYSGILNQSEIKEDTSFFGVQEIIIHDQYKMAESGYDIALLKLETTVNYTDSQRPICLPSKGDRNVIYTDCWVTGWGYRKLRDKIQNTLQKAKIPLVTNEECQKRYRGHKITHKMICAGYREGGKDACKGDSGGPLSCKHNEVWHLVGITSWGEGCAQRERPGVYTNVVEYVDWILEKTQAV
T1 sequence (P03951 19-387 partner limits assumed): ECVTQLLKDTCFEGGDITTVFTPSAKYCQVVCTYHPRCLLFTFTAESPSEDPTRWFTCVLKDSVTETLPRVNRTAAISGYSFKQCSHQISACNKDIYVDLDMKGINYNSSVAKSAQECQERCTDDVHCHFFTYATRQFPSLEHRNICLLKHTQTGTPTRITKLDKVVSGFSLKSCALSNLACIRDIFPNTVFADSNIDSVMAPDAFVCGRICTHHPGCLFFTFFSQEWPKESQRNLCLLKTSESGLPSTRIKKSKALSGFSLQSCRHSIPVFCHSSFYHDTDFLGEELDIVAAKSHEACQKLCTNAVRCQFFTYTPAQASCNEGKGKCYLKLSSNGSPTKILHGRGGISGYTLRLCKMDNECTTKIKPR
Chain of Plasmin (P00747 581-810 limits assumed, species assumed): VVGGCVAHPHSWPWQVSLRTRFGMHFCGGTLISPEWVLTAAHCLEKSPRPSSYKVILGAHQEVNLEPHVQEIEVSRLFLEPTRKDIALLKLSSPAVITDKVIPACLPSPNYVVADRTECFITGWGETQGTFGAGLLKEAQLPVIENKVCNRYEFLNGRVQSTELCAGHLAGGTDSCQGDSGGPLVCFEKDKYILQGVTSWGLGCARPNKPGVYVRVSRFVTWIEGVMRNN
Chain of Plasmin (P00747 97-580 partner limits assumed, species assumed): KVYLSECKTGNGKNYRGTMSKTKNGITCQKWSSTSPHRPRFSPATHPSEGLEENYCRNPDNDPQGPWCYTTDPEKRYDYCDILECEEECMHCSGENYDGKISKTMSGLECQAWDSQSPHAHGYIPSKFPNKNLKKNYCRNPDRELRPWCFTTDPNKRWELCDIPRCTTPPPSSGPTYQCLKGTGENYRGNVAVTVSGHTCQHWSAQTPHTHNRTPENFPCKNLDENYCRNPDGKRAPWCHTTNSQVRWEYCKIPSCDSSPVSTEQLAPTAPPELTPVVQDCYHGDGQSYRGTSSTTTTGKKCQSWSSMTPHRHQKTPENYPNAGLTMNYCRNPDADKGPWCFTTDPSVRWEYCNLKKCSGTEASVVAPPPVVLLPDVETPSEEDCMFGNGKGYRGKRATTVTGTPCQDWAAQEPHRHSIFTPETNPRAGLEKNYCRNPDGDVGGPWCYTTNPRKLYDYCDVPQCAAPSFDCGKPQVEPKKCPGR

N=C(N)c1cccc(CC(NS(=O)(=O)c2cccc(-c3ccc(Cl)cc3Cl)c2)c2nc3ccccc3s2)c1 (racemic) [3 (racemic), 3-[2-(1,3-Benzothiazol-2-yl)-2-{2′,4′-dichloro-[1,1′-biphenyl]-3-sulfonamido}ethyl]benzene-1-carboximidamide]
< 10 µM: MMP 2 | FXa; FXa | Thrombin a
> 10 µM: FXIa; FXIa | ACE2 | Matriptase 2 | MMP 13 | Kallikrein 12 | Kallikrein 7 | Plasmin | Kallikrein 14

COc1ccc2nc(C(Cc3cccc(C(=N)N)c3)NS(=O)(=O)c3ccccc3)sc2c1 (centres unmarked) [Compound 11, 3-[2-Benzenesulfonamido-2-(6-methoxy-1,3-benzothiazol-2-yl)ethyl]benzene-1-carboximidamide]
< 10 µM: Matriptase 2
> 10 µM: FXIa; Factor XIa | ACE2 | MMP 2 | MMP 13 | Kallikrein 12 | FXa; Factor Xa | Thrombin a | Kallikrein 7 | Plasmin | Kallikrein 14

N=C(N)c1cccc(CC(NS(=O)(=O)c2ccccc2)c2nc3ccccc3s2)c1 (racemic) [1 (racemic mixture, batch 1), 3-[2-Benzenesulfonamido-2-(1,3-benzothiazol-2-yl)ethyl]benzene-1-carboximidamide]
> 10 µM: FXIa; FXIa | ACE2 | Matriptase 2 | MMP 2 | MMP 13 | Kallikrein 12 | FXa; FXa | Thrombin a | Kallikrein 7 | Plasmin | Kallikrein 14

N=C(N)c1cccc(C[C@H](NS(=O)(=O)c2ccccc2)c2nnco2)c1 (single isomer, unassigned) [Compound 2 (enantiomer 1, batch 1), 3-[2-Benzenesulfonamido-2-(1,3,4-oxadiazol-2-yl)ethyl]benzene-1-carboximidamide]
> 10 µM: FXIa; FXIa | ACE2 | Matriptase 2 | MMP 2 | MMP 13 | Kallikrein 12 | FXa; FXa | Thrombin a | Kallikrein 7 | Plasmin | Kallikrein 14

From patent US20240132457A1, “3-(2-(BENZO[D]THIAZOL-2-YL)-2-(PHENYLSUFONAMIDO)ETHYL)BENZIMIDAMIDE DERIVATIVES AND RELATED COMPOUNDS AS TMPRSS2 INHIBITORS FOR THE TREATMENT OF VIRAL INFECTIONS” (INTEGERBIO, INC., priority 2020, published 2024)
